Assay results published in patent US20250312469A1 (CANGET BIOTEKPHARMA, priority 2024, published 2025).

Columns and labels:
[1] = test system: 22Rv1 CRPC tumors; test: 22Rv1 CRPC tumor model
[2] = biological target: T1, ABCG2/BCRP (Homo sapiens, UniProt Q9UNQ0); details: Caco-2; without and with Ko143
T1 sequence (Q9UNQ0 1-655): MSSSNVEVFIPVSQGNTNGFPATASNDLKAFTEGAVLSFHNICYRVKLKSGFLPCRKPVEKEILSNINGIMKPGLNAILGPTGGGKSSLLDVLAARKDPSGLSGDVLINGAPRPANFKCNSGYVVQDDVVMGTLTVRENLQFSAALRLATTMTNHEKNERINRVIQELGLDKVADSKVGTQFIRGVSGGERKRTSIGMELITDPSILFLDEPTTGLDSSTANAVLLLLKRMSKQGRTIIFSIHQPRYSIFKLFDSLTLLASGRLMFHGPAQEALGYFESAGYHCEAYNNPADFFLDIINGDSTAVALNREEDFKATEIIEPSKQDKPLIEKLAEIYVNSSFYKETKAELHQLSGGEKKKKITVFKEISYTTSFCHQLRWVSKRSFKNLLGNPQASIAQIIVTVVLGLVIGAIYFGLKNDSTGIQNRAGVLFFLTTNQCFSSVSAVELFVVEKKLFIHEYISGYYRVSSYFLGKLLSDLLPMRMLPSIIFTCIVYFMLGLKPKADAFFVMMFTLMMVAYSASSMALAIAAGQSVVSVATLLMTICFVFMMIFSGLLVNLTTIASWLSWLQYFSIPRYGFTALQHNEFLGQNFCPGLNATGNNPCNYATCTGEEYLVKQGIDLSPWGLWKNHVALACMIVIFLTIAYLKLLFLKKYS

[3] = biological target: T1, ABCG2/BCRP; test: ABCG2/BCRP inhibition (BCRP-MDCK, cladribine)
Experimental: After 30 minutes the buffer was removed, replaced with fresh dosing solution/assay buffer, and time was recorded as 0. […] Each determination was performed in duplicate. […] Analytical conditions are outlined in Appendix 1.

For CCC1(O)C(=O)OCc2c1cc1n(c2=O)Cc2cc3cc4c(cc3nc2-1)OCO4 (centres unmarked) [FL118], which antitumor efficacy ([1]; 5 mg/kg oral, weekly×4) is on record?
The antitumor efficacy was “completely inhibited 22Rv1 tumor growth”.

What about the “toxicity (clinical observations, body weight)” value ([1]; therapeutic dose) of the same compound?
The value was “exhibited no toxicity”.

What about the “BCRP Substrate Classification” value [2] of the same compound?
Its value is “Negative (ER≥2.0 without Ko143, and reduced by <50% with Ko143: Negative)”.

And the “inhibition of BCRP transport of cladribine” value ([3]; 1.0 μM FL118)?
The value was “does not inhibit cladribine acting as a BCRP substrate”.

And the “BCRP Inhibition Potential Classification” value ([3]; BCRP-MDCK, cladribine as substrate, 1.0 μM FL118 or 0.5 μM Ko143)?
Its value is “Negative (without inhibitor, and reduced by <50 with inhibitor: Negative)”.
